Data set [1] relates to Trypanosoma cruzi. The experiment in a line: GSK_TCAKS: pIC50 Trypanosoma cruzi Imaging: Amastigotes/Cell. […] Cells were then washed once with PBS before infection. T. cruzi trypomastigotes, collected at days 5 to 8 after infection from LLC-MK2 parasite infected cultures, were allowed to swim out for 4h at 37C from a centrifuged pellet (2,500 rpm/10 min/room temperature). Trypomastigotes were then collected and counted in a CASY Cell Counter. Trypomastigotes, in supplemented DMEM, were added to H9c2 cultures in a multiplicity of infection of 1 and incubated for 18 h. Cells were washed once with PBS before incubation of the infected H9c2 monolayer with trypsin (Life-Technologies) to detach cells from the flask. Cells were counted in a CASY Cell Counter using a 150 um capillary and their density set at 5 * 10^4 cells per mL in supplemented assay DMEM. Infected H9c2 were dispensed into 384-well poly-lysine coated assay plates at 50uL per well using a Multidrop Combi dispenser. After seeding them, the plates were incubated at 37C, 5% CO2 for 72h. Cultures were then fixed and stained by addition of 50 uL of a solution containing 8% formaldehyde and 4 uM DRAQ5 DNA dye (BioStatus, UK) per well. […] Five images were collected per well for reliable statistical analysis. Automated image analysis was performed with a script developed on Acapella High Content Imaging and Analysis Software (PerkinElmer). Output: number of amastigotes per cell as infection level measurement. In kind it is functional, organism-based, Rattus norvegicus. The note with it: H9c2, 4 h.

The test system of data set [2] is Leishmania donovani. The experiment in a line: GSK_TCAKS: pIC50 Leishmania donovani viability assay using fluorescence intensity. Assay plates (1536-well) were prepared by adding 30nL per well of compound. For single shot assay, the final compound concentration was 5uM. […] Briefly, eGFP LdBOB axenic amastigotes were harvested, fixed and counted in a CASY cell counter (Roche-Applied Science). A final concentration of 1.5 * 10^5 cells per well were prepared in amastigote media containing 500 U/mL penicillin/streptomycin (Invitrogen) and 6uL was dispensed to each experimental well using a Multidrop Combi dispenser (Thermo Scientific). 6uL of assay media was dispensed to control columns used as reference for 100% compound response. Following incubation for 72 h at 37C, 5% CO2, 2 uL of resazurin was added to each well at a final concentration of 0.5 mM in phosphate buffered saline (PBS) with IGEPAL (Sigma-Aldrich), 0.05% (v/v). In kind it is functional, organism-based. Background: The colour change of resazurin is a common sign of viable cells or microbes.

The subject of data set [3] is Leishmania donovani. The experiment in a line: GSK_TCAKS: pIC50 Leishmania donovani Imaging: Amastigotes/Macrophages. Assay plates (384-well) were prepared by adding 250nL of compound to each well. For single shot assay, the final compound concentration was 5 uM. […] Automated image analysis was performed with a script developed on Acapella High Content Imaging and Analysis Software (PerkinElmer). Output: Average number of amastigotes per macrophage cell were reported for each well. In kind it is functional, organism-based, Homo sapiens. The note with it: THP-1.

The test system of data set [4] is Leishmania donovani. The data set can be described thus: GSK_TCAKS: pIC50 Leishmania donovani Imaging: Infected Macrophages. Assay plates (384-well) were prepared by adding 250nL of compound to each well. For single shot assay, the final compound concentration was 5 uM. […] Automated image analysis was performed with a script developed on Acapella High Content Imaging and Analysis Software (PerkinElmer). Output: Percent of infected macrophage cells were reported for each well. Particulars: THP-1. In kind it is functional, organism-based, Homo sapiens.

Data set [5] has as its target Sterol 14-alpha demethylase (Trypanosoma cruzi (strain CL Brener), UniProt Q7Z1V1). The data set can be described thus: GSK_TCAKS: pIC50 CYP51 from Trypanosoma cruzi. It is filed as functional.
Data set [6] deals with Leishmania donovani. The data set can be described thus: GSK_TCAKS: pIC50 Leishmania donovani Imaging: THP-1 Host Macrophages. Assay plates (384-well) were prepared by adding 250nL of compound to each well. For single shot assay, the final compound concentration was 5 uM. […] Automated image analysis was performed with a script developed on Acapella High Content Imaging and Analysis Software (PerkinElmer). Output: THP-1 cell count were reported for each well. It is filed as functional, organism-based, Homo sapiens.

Data set [7] deals with Trypanosoma brucei brucei. The experiment in a line: GSK_TCAKS: pIC50 Trypanosoma brucei viability assay using luminiscence. Assay plates (1536-well) were prepared. T. brucei cultures were harvested and counted in a CASY cell counter. A parasite suspension was prepared at a final concentration of 5 * 10^4 cells/mL in complete HMI9 medium and 6uL was dispensed to all wells containing compounds using a Multidrop Combi dispenser. 6uL of HMI9 media with 0.4% DMSO were dispensed to control columns. Plates were incubated for 24 h at 37C, 5% CO2 then tempered for 10 min at room temperature. ATP content was quantified by adding 4 uL of CellTiter-Glo Reagent (Promega) according to the manufacturer's instructions. Luminescence was measured using a ViewLux. It is filed as functional, organism-based. The note with it: Lister 427, CASY. For orientation: ATP-based viability assays read luminescence as a measure of living cells.

Data set [8] relates to Trypanosoma cruzi. The data set can be described thus: (§1) GSK_TCAKS: pIC50 Trypanosoma cruzi Imaging: Infected Cells. […] Cells were then washed once with PBS before infection. T. cruzi trypomastigotes, collected at days 5 to 8 after infection from LLC-MK2 parasite infected cultures, were allowed to swim out for 4h at 37C from a centrifuged pellet (2,500 rpm/10 min/room temperature). Trypomastigotes were then collected and counted in a CASY Cell Counter. Trypomastigotes, in supplemented DMEM, were added to H9c2 cultures in a multiplicity of infection of 1 and incubated for 18 h. Cells were washed once with PBS before incubation of the infected H9c2 monolayer with trypsin (Life-Technologies) to detach cells from the flask. Cells were counted in a CASY Cell Counter using a 150 um capillary and their density set at 5 * 10^4 cells per mL in supplemented assay DMEM. Infected H9c2 were dispensed into 384-well poly-lysine coated assay plates at 50uL per well using a Multidrop Combi dispenser. After seeding them, the plates were incubated at 37C, 5% CO2 for 72h. Cultures were then fixed and stained by addition of 50 uL of a solution containing 8% formaldehyde and 4 uM DRAQ5 DNA dye (BioStatus, UK) per well. […] Five images were collected per well for reliable statistical analysis. Automated image analysis was performed with a script developed on Acapella High Content Imaging and Analysis Software (PerkinElmer). Output: percentage of infected cells per well as a second infection marker. It is filed as functional, organism-based, Rattus norvegicus. Particulars: H9c2, 4 h.

Data set [9] is described as follows: GSK_TCAKS: pIC50 HepG2 human cell line viability assay using luminiscence. […] Seeding density was checked to ensure that new mono-layers were not more than 50% confluent at the time of harvesting. Cell suspension was added to 500 mL of the same medium at a final density of 1.2 * 10^5 cells/mL. This cell suspension was dispensed (25 uL, 3000 cells per well) into 384-well clear-bottom plates using a Multidrop Combi dispenser. Prior to addition of the cell suspension, the screening compounds (250 nL) were pre-dispensed into the plates with an Echo liquid handler. Plates were incubated for 48 h at 37C, 5% CO2. After incubation, plates equilibrated at room temperature for 30 min before proceeding to develop the luminescent signal. The signal developer, CellTiter-Glo Reagent, was allowed to equilibrate at room temperature for 30 min and added to the plates (25uL per well) using a Multidrop Combi dispenser. Plates were left for 10 min at room temperature for stabilization and then read using a ViewLux. It is filed as toxicity, cell-based.

For data set [10], the system named is Trypanosoma brucei brucei. The data set can be described thus: GSK_TCAKS: pIC50 Trypanosoma brucei viability assay using fluorescence intensity. Assay plates (1536-well) were prepared by dispensing 25nL of compound solution per well using an Echo acoustic dispenser (Labcyte). In kind it is functional, organism-based. Particulars: Lister 427, 2 h.
Data set [11] has as its system Trypanosoma cruzi. Described as §1, with “H2C9” for “Trypanosoma cruzi”, “H9c2 Host Cardiomyocytes.” for “Infected Cells.”, “Number” for “percentage”, “H9c2 Host Cardiomyocytes nuclei to determine drug-related cytotoxicity.” for “infected cells per well as a second infection marker.”. In kind it is functional, organism-based, Rattus norvegicus. Particulars: H9c2, 4 h.

Data set [12] relates to Trypanosoma cruzi. The experiment in a line: GSK_TCAKS: pIC50 Trypanosoma cruzi viability assay using beta-GAL activity. This assay was run at single shot at 5uM compound concentration per well. The biological reagents consisted of NIH-3T3 host cells and trypomastigotes parasitic cells; both cell types were set to a 3.3 * 10^5 cells/mL dilution in assay DMEM by means of a CASY cell counter device using a 60um capillary. 6 uL of the mixture were dispensed per well (about 1 * 10^3 host-cells and 1 * 10^3 parasites) with a Multidrop Combi dispenser. […] In all wells, the percentage of DMSO never exceeded 0.5%. Plates incubated for four days at 37C, 5% CO2. The substrate used for the assay fluorescence intensity (FLINT) readout was resorufin-beta-D-galactopiranoside (Sigma-Aldrich) at 5uM per well. It was diluted in PBS supplemented with the soft detergent Igepal (Fluka). It is filed as functional, organism-based, Mus musculus. Particulars: Tulahuen, NIH3T3.

Each structure is given as a SMILES string. Some results are limits rather than exact numbers.

Chain of Sterol 14-alpha demethylase (Q7Z1V1 whole entry): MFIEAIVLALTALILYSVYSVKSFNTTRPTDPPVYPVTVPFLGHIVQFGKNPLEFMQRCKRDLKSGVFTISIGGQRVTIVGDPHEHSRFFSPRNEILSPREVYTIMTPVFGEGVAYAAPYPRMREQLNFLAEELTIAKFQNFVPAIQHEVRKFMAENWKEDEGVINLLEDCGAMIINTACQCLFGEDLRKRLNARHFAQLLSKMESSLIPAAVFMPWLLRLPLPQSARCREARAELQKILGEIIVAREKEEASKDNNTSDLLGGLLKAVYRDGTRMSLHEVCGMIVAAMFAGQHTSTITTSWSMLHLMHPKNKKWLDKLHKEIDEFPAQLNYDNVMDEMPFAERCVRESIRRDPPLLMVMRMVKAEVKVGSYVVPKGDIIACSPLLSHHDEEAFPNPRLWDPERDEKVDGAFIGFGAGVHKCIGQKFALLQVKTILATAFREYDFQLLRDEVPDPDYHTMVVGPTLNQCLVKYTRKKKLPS

On to `NC(=O)c1ncccc1Nc1nc(N[C@H]2CC[C@H](O)CC2)ncc1Br`, for which the half-inhibitory concentration (IC50) – broadly, the point on the concentration scale where inhibition reaches its midpoint – is 501 nM with Trypanosoma cruzi [1]; 1260 nM with Leishmania donovani [2]; 631 nM in the data set with Leishmania donovani [3]; 1260 nM in the data set with Leishmania donovani [4]; more than 100000 nM in data set [5]; 398 nM with Leishmania donovani [6]. Further, the half-maximal inhibitory concentration (IC50) was 631 nM in data set [7]; 2000 nM in the data set with Trypanosoma cruzi [8]; 316 nM in data set [10]; 631 nM in the data set on Trypanosoma cruzi [11]; 1580 nM in the data set with Trypanosoma cruzi [12]. This molecule also had an IC50 at 48 h in data set [9] of more than 100000 nM.

Turning to `CCc1cc(C(=O)Nc2nccn2-c2ccccc2)cs1`, the half-maximal inhibitory concentration (IC50) is 3160 nM in the data set with Trypanosoma cruzi [1]; 6310 nM in the data set on Leishmania donovani [2]; 5010 nM in the data set on Leishmania donovani [3]; 12600 nM in the data set with Leishmania donovani [4]; more than 100000 nM in [5]; 31600 nM in the data set on Leishmania donovani [6]. Also, the concentration for half-maximal inhibition (IC50) is 3980 nM in [7]; 5010 nM in the data set with Trypanosoma cruzi [8]; 3160 nM in data set [10]; 20000 nM in the data set on Trypanosoma cruzi [11]; 3160 nM in the data set on Trypanosoma cruzi [12]. Besides, in [9], the half-inhibitory concentration (IC50) at 48 h is more than 100000 nM.

With `CC(C)c1cc(Nc2cc(Cc3ccccc3)nc(N[C@H]3CC[C@H](O)CC3)n2)n[nH]1`, the IC50 was 31.6 nM in the data set with Trypanosoma cruzi [1]; 3160 nM with Leishmania donovani [2]; 39.8 nM in the data set on Leishmania donovani [3]; 63.1 nM in the data set with Leishmania donovani [4]; 20000 nM in data set [5]; 20 nM in the data set with Leishmania donovani [6]. Moreover, the half-inhibitory concentration (IC50) in [7] was 100 nM; in the data set on Trypanosoma cruzi [8], 79.4 nM; in data set [10], 79.4 nM; in the data set on Trypanosoma cruzi [11] it was 6.31 nM; in the data set with Trypanosoma cruzi [12] it was 79.4 nM. Further, in [9], half-maximal inhibition (IC50 at 48 h) required 31600 nM.

On to `CS(=O)(=O)N[C@H]1CC[C@H](Nc2ncc(Br)c(Nc3ccccc3C(N)=O)n2)CC1`, for which the IC50 in the data set with Trypanosoma cruzi [1] is 2000 nM; in the data set with Leishmania donovani [2] it was 1000 nM; with Leishmania donovani [3] it was 794 nM; in the data set on Leishmania donovani [4] it was 2000 nM; in data set [5], more than 100000 nM; in the data set on Leishmania donovani [6], 501 nM. Also, the 50% inhibitory concentration (IC50) is 79.4 nM in [7]; 5010 nM in the data set with Trypanosoma cruzi [8]; 158 nM in data set [10]; 501 nM in the data set with Trypanosoma cruzi [11]; 7940 nM with Trypanosoma cruzi [12]. In data set [9], the 50% inhibitory concentration (IC50) at 48 h is more than 100000 nM.

Take `O=C1NCc2cccc(Nc3nc(N[C@H]4CC[C@H](O)CC4)ncc3Br)c21`: the IC50 with Trypanosoma cruzi [1] was 398 nM; with Leishmania donovani [2], 794 nM; in the data set on Leishmania donovani [3], 126 nM; with Leishmania donovani [4], 158 nM; in data set [5], more than 100000 nM; in the data set with Leishmania donovani [6], 100 nM. In addition, the IC50 is 126 nM in [7]; 1000 nM in the data set on Trypanosoma cruzi [8]; 63.1 nM in data set [10]; 100 nM in the data set with Trypanosoma cruzi [11]; 631 nM in the data set on Trypanosoma cruzi [12]. Moreover, the 50% inhibitory concentration (IC50) at 48 h in data set [9] is more than 100000 nM.

`NS(=O)(=O)c1ccc(Nc2ncc3cccc(OC4CCNCC4)c3n2)cc1`: the concentration for half-maximal inhibition (IC50) was 20 nM in the data set with Trypanosoma cruzi [1]; 39800 nM in the data set with Leishmania donovani [2]; 15800 nM in the data set on Leishmania donovani [3]; 20000 nM in the data set with Leishmania donovani [4]; more than 100000 nM in data set [5]; 1000 nM in the data set with Leishmania donovani [6]. The IC50 in data set [7] was 316 nM; with Trypanosoma cruzi [8], 50.1 nM; in data set [10], 200 nM; in the data set with Trypanosoma cruzi [11] it was 631 nM; in the data set with Trypanosoma cruzi [12] it was 1780 nM. Also, the half-maximal inhibitory concentration (IC50) at 48 h in [9] was more than 100000 nM.

For `COc1ccc2ncc(=O)n(CCN3CCC(NCc4ccc(-c5cccs5)cc4)CC3)c2n1`, the half-inhibitory concentration (IC50) in the data set with Trypanosoma cruzi [1] was 158 nM; in the data set with Leishmania donovani [2], 1580 nM; in the data set on Leishmania donovani [3], 1260 nM; with Leishmania donovani [4] it was 3160 nM; in data set [5] it was 25100 nM; with Leishmania donovani [6] it was 10000 nM. Also, the concentration for half-maximal inhibition (IC50) in data set [7] is 6310 nM; in the data set on Trypanosoma cruzi [8], 1580 nM; in data set [10], 3160 nM; with Trypanosoma cruzi [11] it was 7940 nM; in the data set on Trypanosoma cruzi [12], 2000 nM. For the same molecule, the half-inhibitory concentration (IC50) at 48 h in data set [9] was 12600 nM.

(Values after ChEMBL document CHEMBL3430912, “GSK Tres Cantos Anti-Kinetoplastid Screening (TCAKS) Data”.)
